Laboratory results published in patent US7919274B2, “Light-emitting fusion proteins and diagnostic and therapeutic methods therefor” (Dana-Farber Cancer Institute, Inc., priority 2001, dated 2011).
Ends that are not written are not given here.

Key:
cdk2 = biological target: T1, cdk2 (Homo sapiens, UniProt P24941); test: GST pull-down assay with GST-cdk2; type: binding; settings: 35S-labeled in vitro translates
T1 construct: made in house
Protocol: (§1) FIG. 11 illustrates that cyclin box is required for transcriptional repression by DNA bound cyclin A. (A) U2OS cells were cotransfected with plasmids encoding the indicated TETr-cyclin A variants along with the pUHC 13-3 reporter plasmid and a plasmid encoding β-galactosidase. Cell extracts were prepared and luciferase activity, corrected for β-galactosidase activity, was expressed as fold repression relative to cells producing TETr alone. (B) The indicated TETr-cyclin A variants were translated in vitro in the presence of ^35S-methionine and incubated with GST-cdk2 and glutathione Sepharose. […] In parallel, 20% of the input proteins were resolved by SDS-polyacrylamide gel electrophoresis and detected by autoradiography. (c) pRB defective SAOS-2 cells transfected so as to produce HA-tagged pRB along with the indicated TETr-cyclin A variants were lysed and immunoblotted with anti-HA antibody.
Glutathione S-transferase pull-down assays were performed basically as described previously (Kaelin et al., 1991). Binding reactions contained 10 μl of ^35S-radiolabelled in vitro translates made with a TNT kit (Promega) and approximately 1 μg of the indicated GST fusion protein in 1 ml of NETN (20 mM Tris [pH 8], 100 mM NaCl, 1 mM EDTA, 0.5% Nonidet P-40). Following 1 hour incubation at 4° C. with rocking, the Sepharose was washed 5 times with NETN. […]

pRB = pRB phosphorylation in pRB-defective SAOS-2 cells; type: cell-based, human; settings: cointroduced with HA-tagged pRB into SAOS-2 cells
Protocol: FIG. 8 illustrates the production of TETr-cyclins A and E. (A) is a schematic of TETr-cyclin fusion protein. […] The % of transfected cells in G1 and S phase was determined by fluororescence activated cell sorting (FACS).
as §1

[1] = test system: TETo-driven luciferase reporter plasmid (pUHC13-3); test: TETr-fusion transcriptional luciferase reporter gene assay in U2OS cells; type: cell-based, human; settings: pUHC13-3 reporter
Protocol: (A) is a schematic of reporter plasmid (pUHC 13-3) that contains seven TETracycline operator sequences (TETo) upstream of a minimal CMV promoter that includes a TATA box. (B, C) show U2OS cells were cotransfected with plasmids encoding the indicated TETr fusion proteins along with the pUHC 13-3 reporter plasmid and a plasmid encoding β-galactosidase. Numbers shown at the bottom of the graph indicate the amount of TETr plasmid (in μg). 48 hours later luciferase activity, normalized for β-galactosidase, was determined. Fold repression is the corrected luciferase value for TETr alone divided by the corrected luciferase values for the indicated TETr fusion proteins. Fold activation represents the corrected luciferase values for the indicated TETr fusion proteins divided by the corrected luciferase value for TETr alone. […]
For TETr-fusion transcriptional assay, subconfluent U2OS cells were transiently transfected in 6-well plates in duplicate with 1 μg of […], 1 μg of pUHC13-3 reporter plasmid, and 3 μg of the indicated plasmids encoding TETr-fusion proteins. […] 48 hours after transfection luciferase activity and β-galactosidase activity was determined as described previously (Qin, 1995).

[2] = In vitro degradation assay with xenopus egg extracts; type: biochemical; settings: room temperature
Protocol: Xenopus egg extracts were made as is well known in the art and stored frozen until use. Degradation reactions contained 8 μl of egg extract, 0.1 μl of 100 mg/ml cyclohexamide, 0.25 μl of energy regeneration mix, 0.25 μl of bovine ubiquitin, and 0.4 μl of ^35S-radiolabeled HIF and were carried out at room temperature. At the indicated timepoints 1 μl aliquots were removed and placed in sample buffer. Samples were resolved on 5-15% gradient gels and analyzed by autoradiography. Biotinylated HIF (556-575) peptides were incubated with rabbit reticulocyte lysate, washed, eluted with free biotin, and analyzed by mass spectrometry. 1 μg of HPLC-purified peptide was bound to 30 μl monomeric avidin Sepharose and incubated with 100 μl of rabbit reticulocyte lysate at room temperature for 1 hour with tumbling. Following brief centrifugation the reticulocyte lysate was removed, fresh reticulocyte lysate was added, and the cycle was repeated 6 times. The Sepharose was then washed 4 times with NETN and once with PBS. The modified peptide was eluted in 50 μl of 20 mM ammonium acetate [pH 7.0], 2 mM biotin. […] This peak was not detectable prior to incubation with reticulocyte lysate and was not detected in the corresponding reticulocyte-treated Leu562Ala and Pro564Ala peptides (FIG. 6A). […] Following visualization of standards with ninhydrin radiolabeled proline was detected by autoradiography. […]

COS7 cells = test: Anti-HA immunoblot of transiently transfected COS7 cells; type: cell-based
Protocol: (A) depicts in vitro ubiquitination of ^35S-labeled wild-type, Leu562A, and Pro564A Gal4-HA-HIF1α (530-652) in the presence of S100 extracts prepared from pVHL-defective renal carcinoma cells stably transfected to produce wild-type pVHL or with empty vector. […] (C) is an anti-HA immunoblot analysis of COS7 cells transiently transfected with 1.5 or 3.5 μg of plasmids encoding wild-type or P564A HA-HIF1α in the absence or presence of desferoxamine.

HA-pVHL bound HIF = biological target: T2, HA-pVHL bound HIF (Homo sapiens, UniProt P40337); test: Peptide elution of HIF coimmunoprecipitated with HA-pVHL from ts20 cells; type: binding; settings: 7 μg peptide in 65 μl PBS
T2 construct: expressed in transfected cells; host or cells: ts20 cells stably transfected with pIRES-HA-VHL, G418-selected
Protocol: Individual G418-resistant colonies were isolated using cloning cylinders and expanded. Cells producing HA-VHL or HA-VHL (Y98H) were identified by anti-HA immunoblot analysis. […] For the tests shown in FIG. 5C, ts20 cells were grown at the restrictive or permissive temperature for 14 hours, methionine-starved for 90 min, and then grown in the methionine-free media supplemented with ^35S-met ([…]) for 90 min.

HeLa cells = test: Luciferase activity in transiently transfected HeLa cells; type: cell-based
Protocol: To begin to ask whether the ODD-Luc was oxygen sensitive in cells, transient transfection assays were performed. In the first set of experiments, 100 mm tissue culture plates were seeded with 8×10^5 HeLa cells per plate. Eighteen hours later the cells were transiently transfected, using lipofectamine (Gibco), with the pcDNA3 plasmids encoding ODD-Luc or wild-type Luc along with an internal control plasmid encoding Renilla luciferase. Twenty-four hours after transfection the cells were split into 6 well plates and allowed to adhere and grow for 8-12 hours. At this point the hypoxia mimetics desferrioxamine (DFO) or cobalt chloride (CoCl2) were added directly to the media at final concentrations of 500 μM and 200 μM respectively, in duplicate wells. In addition, some wells were not treated so as to serve as controls. 12 hours after treatment with DFO and CoCl2 the cells were lysed with Passive Lysis Buffer (Promega), rocked at room temperature for 20 minutes, and assayed for Firefly and Renilla Luciferase according to the manufacturers instructions. Results were obtained in duplicate and averaged. (FIG. 17). Luciferase activity in HeLa cells containing pcDNA3 plasmids encoding wild-type Luc are presented in the first three bars from the left; while luciferase activity in HeLa cells containing pcDNA3 plasmids encoding ODD-Luc are presented in the fourth through sixth bars from the left.

[3] = biological target: T3, pVHL (GST-VHL, elongin B, elongin C complex) (Homo sapiens, UniProt P40337); test: VBC-GST pulldown of 35S-labeled in vitro translated proteins; type: binding
T3 construct: made in house; host or cells: E. coli

[4] = test system: Hela cells xenograft tumors; test: Imaging of ODD-Luc in xenograft tumors in nude mice; type: in vivo; settings: subcutaneous Hela tumors, versus Luc sites
Protocol: Polyclonal Hela cells stably transfected with ODD-Luc and Luc were generated. The clones were suspended in PBS and counted. 10^6 cells per injection site were administered subcutaneously in duplicate into the flanks of nude mice (FIG. 18). Upon growth of palpable tumors (approximately 3-4 days) the mice were given intraperitoneal injections of phenobarbital for anesthesia, injected with a weight-adjusted dose of luciferin, and whole body imaged with a Xenogen Camera. To ensure that the difference in luciferase activity was not simply a function of tumor size alone, bidimensional tumor measurements were taken and were approximately equal.

[5] = Luciferase activity of in vitro translate; type: biochemical; settings: versus wild-type luciferase

T3 sequence (P40337 whole entry): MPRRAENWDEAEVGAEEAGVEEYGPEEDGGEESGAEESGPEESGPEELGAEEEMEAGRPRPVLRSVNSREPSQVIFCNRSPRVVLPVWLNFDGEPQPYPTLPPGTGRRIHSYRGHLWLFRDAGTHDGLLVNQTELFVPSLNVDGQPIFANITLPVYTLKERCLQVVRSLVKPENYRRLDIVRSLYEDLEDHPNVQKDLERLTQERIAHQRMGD
T3 sequence (Q15370 whole entry partner): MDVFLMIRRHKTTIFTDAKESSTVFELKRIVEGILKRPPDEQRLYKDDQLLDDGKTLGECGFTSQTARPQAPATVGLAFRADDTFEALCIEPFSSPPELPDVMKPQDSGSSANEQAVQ
T3 sequence (Q15369 whole entry partner): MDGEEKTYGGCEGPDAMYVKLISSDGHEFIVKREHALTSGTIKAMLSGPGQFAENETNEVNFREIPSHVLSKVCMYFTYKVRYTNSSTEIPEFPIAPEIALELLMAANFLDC
T2 sequence (P40337 whole entry): as the sequence (P40337 whole entry) above
T2 sequence (P62869 whole entry partner): as the sequence (Q15370 whole entry partner) above, with D40E, C89R, S110G counted along it
T2 sequence (P83940 whole entry partner): as the sequence (Q15369 whole entry partner) above

In the case of “Cyclin A (1-310): cyclin A fragment 1-310 fused to TETr”, the “binding to cdk2” value (cdk2) is reported as “does not bind to cdk2”, the pRB phosphorylation (pRB) is reported as “cannot direct the phosphorylation of pRB” and the “transcriptional effect on TETo-driven luciferase reporter” value [1] is reported as “repressed transcription”.

In the case of “HIF1α Leu562Ala: HIF1α with Leu562Ala mutation”, the “stability relative to wild-type HIF1α” value [2] is reported as “far more stable”.

With “HIF1α Pro564Ala: HIF1α with Proline 564 converted to alanine” the “stability relative to wild-type HIF1α” value [2] was “far more stable” and the “sensitivity to the hypoxia-mimetic desferoxamine” value (COS7 cells) was “insensitive”.

With “HIF (556-575) Pro564Ala peptide: HIF (556-575) peptide with Pro564Ala substitution (DLDLEMLAAYIPMDDDFQLR)” the “elution of HIF bound to HA-pVHL” value (HA-pVHL bound HIF) was “not eluted”.

For “ODD-Luc: Firefly luciferase fused in-frame to HIF1α amino acids 555-575 (ODD) (TDLDLEMLAPYIPMDDDFQLR; also: fused to firefly luciferase (not shown))”, the “induced luciferase levels versus wild-type luciferase” value (HeLa cells; after addition of hypoxia-mimetics) was “comparable”, the “luciferase values relative to wild-type Luc” value (HeLa cells; untreated HeLa cells grown in the presence of oxygen) was “approximately 30%” and the “binding of pVHL (GST-VBC pulldown)” value ([3]; translated in vitro in rabbit reticulocyte lysate) was “bound”. For the same substance, the “binding of pVHL (GST-VBC pulldown)” value ([3]; wheat germ produced) was “did not bind”, the “luciferase signal at injection sites (whole body imaging)” value [4] was “attenuated luciferase signal” and the “luciferase activity in vitro” value [5] was “comparable to wild-type luciferase”.
